US20230203098A1, “HUMAN TRANSFERRIN RECEPTOR BINDING PEPTIDE” (priority 2020, published 2023)
Like-named read-outs stand apart in the source and are kept apart here. Values belong to the molecule of their own block, whether it stands above or below them. Where a SMILES comes first, the peptide text is derived from it. Bridges are numbered along the chain shown (N, C = ends). [ ]: non-standard residue; d: D form. The star is where a group is joined. X2 = O=C(O)c1cc(C(=O)*)ccc1-c1c2ccc(=O)cc-2oc2cc(O)ccc12; PEG12 = NCCOCCOCCOCCOCCOCCOCCOCCOCCOCCOCCOCCOCCC(=O)O; NMePhe(3-Cl) = CN[C@@H](Cc1cccc(Cl)c1)C(=O)O; NMeW = CN[C@@H](Cc1c[nH]c2ccccc12)C(=O)O; Lys(N3) = [N-]=[N+]=NCCCC[C@H](N)C(=O)O; NMeY = CN[C@@H](Cc1ccc(O)cc1)C(=O)O; NMeF = CN[C@@H](Cc1ccccc1)C(=O)O; PEG4 = NCCOCCOCCOCCOCCC(=O)O; Nva = CCC[C@H](N)C(=O)O

Target: transferrin receptor (hTfR) (Homo sapiens, UniProt P02786)
Experiment: Intermolecular interaction evaluation test between transferrin receptor (hTfR) and peptide by surface plasmon resonance (SPR)
Format: binding
Method in brief: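 Receptor was Ni-captured and EDC/NHS-fixed on an NTA chip; running buffer HEPES pH 8.0 with NaCl, Tween 20, BSA and 1.0% DMSO.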

[1] = SPR, peptides, linker-added peptides and FITC conjugates, Patent ID 203-230, read-out: KD
[2] = surface plasmon resonance, hTfR, read-out: KD value for hTfR by SPR (class symbol)
[3] = surface plasmon resonance, peptide vs hTfR, read-out: KD value, hTfR binding by SPR (class symbol)
[4] = binding to hTfR by SPR, Table 2 peptides, read-out: KD value (SPR) class

Chain of transferrin receptor (hTfR) (P02786 whole entry): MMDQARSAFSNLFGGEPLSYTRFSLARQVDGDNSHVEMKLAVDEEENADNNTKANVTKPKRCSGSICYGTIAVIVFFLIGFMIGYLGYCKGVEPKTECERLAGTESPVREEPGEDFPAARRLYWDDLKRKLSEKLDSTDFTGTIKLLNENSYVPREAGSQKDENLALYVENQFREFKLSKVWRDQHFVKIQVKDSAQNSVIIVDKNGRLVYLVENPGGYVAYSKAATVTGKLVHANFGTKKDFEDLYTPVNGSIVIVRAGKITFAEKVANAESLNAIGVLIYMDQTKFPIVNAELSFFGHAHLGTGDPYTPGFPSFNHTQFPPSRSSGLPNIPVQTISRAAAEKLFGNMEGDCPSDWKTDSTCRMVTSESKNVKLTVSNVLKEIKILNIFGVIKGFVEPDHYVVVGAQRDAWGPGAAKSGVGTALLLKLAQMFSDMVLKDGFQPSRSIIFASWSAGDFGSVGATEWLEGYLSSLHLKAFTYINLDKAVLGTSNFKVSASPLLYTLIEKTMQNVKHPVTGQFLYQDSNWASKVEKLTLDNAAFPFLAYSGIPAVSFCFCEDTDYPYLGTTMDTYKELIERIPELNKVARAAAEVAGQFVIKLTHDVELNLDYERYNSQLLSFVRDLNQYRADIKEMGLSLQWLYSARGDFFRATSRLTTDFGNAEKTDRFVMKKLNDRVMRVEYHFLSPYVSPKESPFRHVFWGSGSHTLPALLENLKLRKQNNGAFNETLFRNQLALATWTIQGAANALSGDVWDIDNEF

Compound: CC[C@H](C)[C@@H]1NC(=O)[C@H](Cc2ccc(O)cc2)NC(=O)[C@H](Cc2ccc(O)cc2)NC(=O)[C@H](CC(N)=O)NC(=O)[C@H](Cc2c[nH]c3ccccc23)NC(=O)[C@H](C(C)C)NC(=O)[C@H](Cc2ccccc2)NC(=O)[C@H](C(C)C)NC(=O)[C@H](C)NC(=O)CSC[C@@H](C(=O)NCCOCCOCCOCCOCCC(=O)N[C@@H](CNC(=O)c2ccc(-c3c4ccc(=O)cc-4oc4cc(O)ccc34)c(C(=O)O)c2)C(N)=O)NC(=O)[C@H](Cc2ccc(O)cc2)N(C)C(=O)[C@H](Cc2ccc(O)cc2)NC(=O)[C@H](CCCNC(=N)N)NC(=O)[C@H](CCCNC(=N)N)NC(=O)[C@H]([C@@H](C)CC)NC1=O [compound 159]
Kd (SPR, linker and payload (FITC, VivoTag) conjugates, read-out: KD): 1 to 100 nM

Compound: CC[C@H](C)[C@@H]1NC(=O)[C@H](Cc2ccc(O)cc2)NC(=O)[C@H](Cc2ccc(O)cc2)NC(=O)[C@H](CC(N)=O)NC(=O)[C@H](Cc2c[nH]c3ccccc23)NC(=O)[C@H](C(C)C)NC(=O)[C@H](Cc2ccccc2)NC(=O)[C@H](C(C)C)NC(=O)[C@H](C)NC(=O)CSC[C@@H](C(=O)NCCOCCOCCOCCOCCOCCOCCOCCOCCOCCOCCOCCOCCC(=O)N[C@@H](CCCCNC(=O)c2ccc(-c3c4ccc(=O)cc-4oc4cc(O)ccc34)c(C(=O)O)c2)C(N)=O)NC(=O)[C@H](Cc2c[nH]cn2)NC(=O)[C@H](C(C)C)NC1=O [compound 204] ({CH2CO}-AVFVWNYYIVHC[PEG12]K(X2)-NH2; thioether N-12)
Kd [1]: 100 to 1000 nM

Compound: CC[C@H](C)[C@@H]1NC(=O)[C@H](Cc2ccc(OC)cc2)NC(=O)[C@H](Cc2ccc(O)cc2)NC(=O)[C@H](CC(N)=O)NC(=O)[C@H](Cc2c[nH]c3ccccc23)N(C)C(=O)[C@H](C(C)C)NC(=O)[C@H](Cc2cccc(Cl)c2)N(C)C(=O)[C@H](C(C)C)NC(=O)[C@H](C)NC(=O)CSC[C@@H](C(=O)NCC(=O)N[C@@H](CCCCN=[N+]=[N-])C(N)=O)NC(=O)[C@H](Cc2ccc(O)cc2)N(C)C(=O)[C@H](Cc2ccccc2)NC(=O)[C@@H](CCCNC(=N)N)NC(=O)[C@H](CCCNC(=N)N)NC(=O)[C@H]([C@@H](C)CC)NC1=O [compound 405] ({CH2CO}-AV[NMePhe(3-Cl)]V[NMeW]NYY(Me)IIR[dR]F[NMeY]CG[Lys(N3)]-NH2; thioether N-15)
Kd [2]: 1 to 100 nM

Compound: CC[C@H](C)[C@@H]1NC(=O)[C@H](Cc2ccc(OC)cc2)NC(=O)[C@H](Cc2ccc(O)cc2)NC(=O)[C@H](CC(N)=O)NC(=O)[C@H](Cc2c[nH]c3ccccc23)N(C)C(=O)[C@H](C(C)C)NC(=O)[C@H](Cc2cccc(Cl)c2)N(C)C(=O)[C@H](CCC(=O)O)NC(=O)[C@H](C)NC(=O)CSC[C@@H](C(N)=O)NC(=O)[C@H](Cc2ccc(O)cc2)N(C)C(=O)[C@H](Cc2ccccc2)NC(=O)[C@@H](CCCNC(=N)N)NC(=O)[C@H](C)NC(=O)[C@H]([C@@H](C)CC)NC1=O [compound 226] ({CH2CO}-AE[NMePhe(3-Cl)]V[NMeW]NYY(Me)IIA[dR]F[NMeY]C-NH2; thioether N-15)
Kd [1]: 100 to 1000 nM

Compound: CC[C@H](C)[C@@H]1NC(=O)[C@H](Cc2ccc(O)cc2)NC(=O)[C@H](Cc2ccc(O)cc2)NC(=O)[C@H](CC(N)=O)NC(=O)[C@H](Cc2c[nH]c3ccccc23)NC(=O)[C@H](C(C)C)NC(=O)[C@H](Cc2ccccc2)N(C)C(=O)[C@H](Cc2ccccc2)NC(=O)[C@H](C)NC(=O)CSC[C@@H](C(=O)NCCOCCOCCOCCOCCOCCOCCOCCOCCOCCOCCOCCOCCC(N)=O)NC(=O)[C@H](Cc2ccc(O)cc2)N(C)C(=O)[C@H](Cc2ccc(O)cc2)NC(=O)[C@H](CCCNC(=N)N)NC(=O)[C@H](CCCNC(=N)N)NC(=O)[C@H]([C@@H](C)CC)NC1=O [compound 133] ({CH2CO}-AF[NMeF]VWNYYIIRRY[NMeY]C[PEG12]-NH2; thioether N-15)
Kd (SPR, hTfR No. 894 variants with PEG12c linker (Table 2), read-out: KD): 1 to 100 nM

Compound: CC[C@H](C)[C@@H]1NC(=O)[C@H](Cc2ccc(OC)cc2)NC(=O)[C@H](Cc2ccc(O)cc2)NC(=O)[C@H](CC(N)=O)NC(=O)[C@H](Cc2c[nH]c3ccccc23)N(C)C(=O)[C@H](C(C)C)NC(=O)[C@H](Cc2cccc(Cl)c2)N(C)C(=O)[C@H](C(C)C)NC(=O)[C@H](C)NC(=O)CSC[C@@H](C(=O)NCCOCCOCCOCCOCCC(N)=O)NC(=O)[C@H](Cc2ccc(O)cc2)N(C)C(=O)[C@H](Cc2ccccc2)NC(=O)[C@@H](CCCNC(=N)N)NC(=O)[C@H](CCCNC(=N)N)NC(=O)[C@H]([C@@H](C)O)NC1=O [compound 331]
Kd [3]: 1 to 100 nM

Compound: CC[C@H](C)[C@@H]1NC(=O)[C@H](Cc2ccc(OC)cc2)NC(=O)[C@H](Cc2ccc(O)cc2)NC(=O)[C@H](CC(N)=O)NC(=O)[C@H](Cc2c[nH]c3ccccc23)N(C)C(=O)[C@H](C(C)C)NC(=O)[C@H](Cc2cccc(Cl)c2)N(C)C(=O)[C@H](CCC(=O)N[C@H](CCC(=O)O)C(=O)O)NC(=O)[C@H](C)NC(=O)CSC[C@@H](C(N)=O)NC(=O)[C@H](Cc2ccc(O)cc2)N(C)C(=O)[C@H](Cc2ccccc2)NC(=O)[C@@H](CCCNC(=N)N)NC(=O)[C@H](CCCNC(=N)N)NC(=O)[C@H]([C@@H](C)CC)NC1=O [compound 241]
Kd [4]: 1 to 100 nM

Compound: CC[C@H](C)[C@@H]1NC(=O)[C@H](Cc2ccc(O)cc2)NC(=O)[C@H](Cc2ccc(O)cc2)NC(=O)[C@H](CC(N)=O)NC(=O)[C@H](Cc2c[nH]c3ccccc23)NC(=O)[C@H](C(C)C)NC(=O)[C@H](Cc2ccccc2)N(C)C(=O)[C@H](C(C)C)NC(=O)[C@H](C)NC(=O)CSC[C@@H](C(=O)NCC(=O)N[C@@H](CCCCN=[N+]=[N-])C(N)=O)NC(=O)[C@H](Cc2ccc(O)cc2)N(C)C(=O)[C@H](Cc2ccc(O)cc2)NC(=O)[C@H](CCCNC(=N)N)NC(=O)[C@H](CCCNC(=N)N)NC(=O)[C@H]([C@@H](C)CC)NC1=O [compound 297]
Kd [3]: 1 to 100 nM

Compound: CCC[C@@H]1NC(=O)[C@H](C)NC(=O)CSC[C@@H](C(=O)NCCOCCOCCOCCOCCC(N)=O)NC(=O)[C@H](Cc2ccc(O)cc2)N(C)C(=O)[C@H](Cc2ccccc2)NC(=O)[C@@H](CCCNC(=N)N)NC(=O)[C@H](CCCNC(=N)N)NC(=O)[C@H]([C@@H](C)CC)NC(=O)[C@H]([C@@H](C)CC)NC(=O)[C@H](Cc2ccc(OC)cc2)NC(=O)[C@H](Cc2ccc(O)cc2)NC(=O)[C@H](CC(N)=O)NC(=O)[C@H](Cc2c[nH]c3ccccc23)N(C)C(=O)[C@H](C(C)C)NC(=O)[C@H](Cc2cccc(Cl)c2)N(C)C1=O [compound 244] ({CH2CO}-A[Nva][NMePhe(3-Cl)]V[NMeW]NYY(Me)IIR[dR]F[NMeY]C[PEG4]-NH2; thioether N-15)
Kd [4]: 1 to 100 nM

Compound: CCC[C@@H]1NC(=O)[C@H]([C@@H](C)CC)NC(=O)[C@H]([C@@H](C)CC)NC(=O)[C@H](Cc2ccc(OC)cc2)NC(=O)[C@H](Cc2ccc(O)cc2)NC(=O)[C@H](CC(N)=O)NC(=O)[C@H](Cc2c[nH]c3ccccc23)N(C)C(=O)[C@H](C(C)C)NC(=O)[C@H](Cc2cccc(Cl)c2)N(C)C(=O)[C@H](C(C)C)NC(=O)[C@H](C)NC(=O)CSC[C@@H](C(=O)NCCOCCOCCOCCOCCC(N)=O)NC(=O)[C@H](Cc2ccc(O)cc2)N(C)C(=O)[C@H](Cc2ccccc2)NC(=O)[C@@H](CCCNC(=N)N)NC1=O [compound 360] ({CH2CO}-AV[NMePhe(3-Cl)]V[NMeW]NYY(Me)II[Nva][dR]F[NMeY]C[PEG4]-NH2; thioether N-15)
Kd [2]: 1 to 100 nM

Other lines, results leading:

Kd [3]: 1 to 100 nM
Compound: CC[C@H](C)[C@@H]1NC(=O)[C@H](Cc2ccc(OC)cc2)NC(=O)[C@H](Cc2ccc(O)cc2)NC(=O)[C@H](CC(N)=O)NC(=O)[C@H](Cc2c[nH]c3ccccc23)N(C)C(=O)[C@H](C(C)C)NC(=O)[C@H](Cc2cccc(Cl)c2)N(C)C(=O)[C@H](C(C)C)NC(=O)[C@H](C)NC(=O)CSC[C@@H](C(N)=O)NC(=O)[C@H](Cc2ccc(O)cc2)N(C)C(=O)[C@H](Cc2ccccc2)NC(=O)[C@@H](CCCNC(=N)N)NC(=O)[C@H](CCCNC(=N)N)NC(=O)[C@H](CCC(=O)N[C@H](CCC(=O)O)C(=O)O)NC1=O [compound 347] ({CH2CO}-AV[NMePhe(3-Cl)]V[NMeW]NYY(Me)IE(dE)R[dR]F[NMeY]C-NH2; thioether N-15)

Kd [4]: 1 to 100 nM
Compound: CC[C@H](C)[C@@H]1NC(=O)[C@H](Cc2ccc(OC)cc2)NC(=O)[C@H](Cc2ccc(O)cc2)NC(=O)[C@H](CC(N)=O)NC(=O)[C@H](Cc2c[nH]c3ccccc23)N(C)C(=O)[C@H](C(C)C)NC(=O)[C@H](Cc2cccc(Cl)c2)N(C)C(=O)[C@H](CCC(=O)O)NC(=O)[C@H](C)NC(=O)CSC[C@@H](C(=O)NCC(=O)N[C@@H](CCCCN=[N+]=[N-])C(N)=O)NC(=O)[C@H](Cc2ccc(O)cc2)N(C)C(=O)[C@H](Cc2ccccc2)NC(=O)[C@H](CCC(=O)O)NC(=O)[C@H](CCCNC(=N)N)NC(=O)[C@H]([C@@H](C)CC)NC1=O [compound 232] ({CH2CO}-AE[NMePhe(3-Cl)]V[NMeW]NYY(Me)IIREF[NMeY]CG[Lys(N3)]-NH2; thioether N-15)

Kd [3]: 1 to 100 nM
Compound: CC[C@H](C)[C@@H]1NC(=O)[C@H](Cc2ccc(OC)cc2)NC(=O)[C@H](Cc2ccc(O)cc2)NC(=O)[C@H](CC(N)=O)NC(=O)[C@H](Cc2c[nH]c3ccccc23)N(C)C(=O)[C@H](C(C)C)NC(=O)[C@H](Cc2cccc(Cl)c2)N(C)C(=O)[C@H](C(C)C)NC(=O)[C@H](C)NC(=O)CSC[C@@H](C(=O)NCC(=O)NCC(=O)NCC(=O)NCC(=O)N[C@@H](CO)C(=O)N[C@@H](CO)C(=O)N[C@@H](CS)C(N)=O)NC(=O)[C@H](Cc2ccc(O)cc2)N(C)C(=O)[C@H](Cc2ccccc2)NC(=O)[C@@H](CCCNC(=N)N)NC(=O)[C@H](CCCNC(=N)N)NC(=O)[C@H](CCC(=O)O)NC1=O [compound 342]

Kd (SPR, hTfR, class symbols A-D, read-out: KD): > 1000 nM
Compound: CC[C@H](C)[C@@H]1NC(=O)[C@H](Cc2ccc(OC)cc2)NC(=O)[C@H](Cc2ccc(O)cc2)NC(=O)[C@H](CC(N)=O)NC(=O)[C@H](Cc2c[nH]c3ccc(Cl)cc23)NC(=O)[C@H](C(C)C)NC(=O)[C@H](Cc2cccc(Cl)c2)N(C)C(=O)[C@H](C(C)C)NC(=O)[C@H](C)NC(=O)CSC[C@@H](C(N)=O)NC(=O)[C@H](Cc2ccc(O)cc2)N(C)C(=O)[C@H](Cc2ccccc2)NC(=O)[C@@H](CCCNC(=N)N)NC(=O)[C@H](CCCNC(=N)N)NC(=O)[C@H]([C@@H](C)CC)NC1=O [compound 464]
